Reference: patent US7169781B2, “Imidazole derivatives and their use as pharmaceutical agents” (Hoffmann-La Roche Inc., priority 2003, dated 2007)

Assays:
c-met = target: T1, c-met (Homo sapiens, UniProt P08581); assay: C-met-Inhibitor-Assay (ELISA type assay measuring phosphorylation of c-met from HT29 cell lysate); assay type: biochemical; conditions: ATP final conc. 40 μM, 60 min at room temperature
T1 construct: Cell lysate of human colon adenocarcinoma HT29 known for its high content of c-met; endogenous in cells; host or cells: HT29 (ATCC HTB-38), human colon adenocarcinoma
T1 sequence (P08581 25-1390): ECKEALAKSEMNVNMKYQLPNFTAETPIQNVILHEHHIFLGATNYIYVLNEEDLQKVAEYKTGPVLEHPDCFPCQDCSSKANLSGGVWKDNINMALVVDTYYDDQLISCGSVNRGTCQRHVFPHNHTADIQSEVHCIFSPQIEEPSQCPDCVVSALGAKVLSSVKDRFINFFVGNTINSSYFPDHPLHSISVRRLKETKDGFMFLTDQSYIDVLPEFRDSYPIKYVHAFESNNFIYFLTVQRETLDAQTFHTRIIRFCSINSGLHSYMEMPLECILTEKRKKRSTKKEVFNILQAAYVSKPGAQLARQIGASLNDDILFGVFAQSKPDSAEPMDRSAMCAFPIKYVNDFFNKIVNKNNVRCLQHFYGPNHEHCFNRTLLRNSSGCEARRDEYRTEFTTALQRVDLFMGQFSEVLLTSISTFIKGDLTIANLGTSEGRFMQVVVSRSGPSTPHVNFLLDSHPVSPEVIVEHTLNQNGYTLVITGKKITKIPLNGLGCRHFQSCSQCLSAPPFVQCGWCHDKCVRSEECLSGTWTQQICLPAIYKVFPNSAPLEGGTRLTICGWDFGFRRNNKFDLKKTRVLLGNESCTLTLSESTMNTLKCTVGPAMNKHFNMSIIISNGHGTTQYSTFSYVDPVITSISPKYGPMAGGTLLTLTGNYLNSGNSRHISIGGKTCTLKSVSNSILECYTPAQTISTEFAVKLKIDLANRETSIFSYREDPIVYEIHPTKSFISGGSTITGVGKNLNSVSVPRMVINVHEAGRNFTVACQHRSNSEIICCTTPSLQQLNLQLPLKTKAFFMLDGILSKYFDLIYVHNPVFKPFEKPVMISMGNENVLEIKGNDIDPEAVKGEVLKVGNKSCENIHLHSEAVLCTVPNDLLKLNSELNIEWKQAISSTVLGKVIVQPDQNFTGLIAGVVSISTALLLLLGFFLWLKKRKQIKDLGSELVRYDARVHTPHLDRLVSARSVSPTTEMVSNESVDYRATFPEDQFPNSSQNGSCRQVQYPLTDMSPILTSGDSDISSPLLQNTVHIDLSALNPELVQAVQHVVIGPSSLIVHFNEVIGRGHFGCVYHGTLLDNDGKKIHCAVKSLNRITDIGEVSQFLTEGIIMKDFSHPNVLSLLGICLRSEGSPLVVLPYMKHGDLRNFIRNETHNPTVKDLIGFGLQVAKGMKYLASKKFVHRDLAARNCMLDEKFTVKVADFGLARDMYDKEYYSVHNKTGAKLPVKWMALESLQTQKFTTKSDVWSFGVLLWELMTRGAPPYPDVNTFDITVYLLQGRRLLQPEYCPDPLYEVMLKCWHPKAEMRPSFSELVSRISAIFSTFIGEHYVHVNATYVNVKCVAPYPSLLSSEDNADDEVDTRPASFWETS
Source text: C-met-Inhibitor-Assay: Assay Principle
C-met is a typical tyrosine kinase which is involved in metastasis, proliferation/apoptosis and angiogenesis of tumors. The assay is an ELISA type assay measuring the phosphorylation of c-met using a phospho-tyrosine specific antibody.
Cell lysate of human colon adenocarcinoma HT29 known for its high content of c-met is bound to the wells of a microtiterplate (MTP) via an anti-hHGF receptor antibody (anti-hHGFR). ATP-phosphorylation of c-met is detected in presence or absence of the test compounds by using a phospho-tyrosine mouse IgG and a POD labeled goat anti-mouse IgG detection system. Using the classical POD substrate TMB, an absorption at 450 nm/620 nm is used to calculate enzymatic activity.
Plates: 96-well polystyrene plates (NUNC) streptavidin-coated microtiter plates Cell line/Lysate: HT29 (ATCC HTB-38), human colon adenocarcinoma (confluence: 2.5×10^5 cells/cm^2) are washed with PBS and incubated with Lysis buffer for 10 min on ice. Supernatent is collected and diluted with TBS. Lysate is shockfrozen in liquid nitrogen and stored at −80° C.)
Reagents (all working solutions are kept at 4° C., unless stated otherwise): • anti-hHGFR detection stock solution: 50 μg/ml (R&D Systems, Cat.No. BAF 358) antibody final conc.: 1 μg/ml • p-Tyr (PY99) mouse stock solution: 200 μg/ml (Santa Cruz Biotechnology, monoclonal IgG2b Cat.No. SC-7020) final conc.: 0.2 μg/ml • goat-anti-mouse IgG: 2 ml (BIO RAD, Cat.No. 170-6516) • (H+L)-HRP Conjugate; final conc.: 1:2000 • Blocking Reagent: Roche Diagnostics GmbH, Cat.No.1112589 for ELISA diluted 1:10 in TBS • ATP: Adenosine-5′-triphosphate, stock solution 10 mM, stock solution 10 mM (Roche • Diagnostics GmbH, Cat.No. 127531) final conc.: 40 μM • TBS: Tris-buffered saline, 50 mM TRIS pH 7.5 (Roche Diagnostics GmbH, Cat.No. 708976), 150 mM NaCl (SIGMA, Cat.No. S-3014) • Wash buffer TBS-T: Tris-buffered saline, 50 mM TRIS pH 7.5 150 mM NaCl, containing 0.5% Tween20 • Kinase buffer: Tris-buffered saline, 50 mM TRIS pH 7.5, 100 mM NaCl, 60 mM MgCl2 (SIGMA Chemical Company, Cat.No. M-1028) • Lysis buffer: 50 mM TRIS pH 7.5 containing 1% Nonidet P40 (Roche Diagnostics GmbH, Cat.No.1754599) 0.5% Deoxycholic acid (SIGMA Chemical Company, Cat.No. D-6750) • final conc.: 1 mM 1 mM PMSF stock solution 70 mM (Roche Diagnostics GmbH, • Cat.No.837091 40 μl/ml Complete (Roche Diagnostics GmbH, Cat.No. 1836145) Final conc.: 40 μl/ml • TMB: Tetramethylbenzidine (Intergen Company, Cat.No. 91000) • Samples: 10 mM in DMSO (stored at −20° C.), thawed at room temperature
Procedure: • Add 50 μl of anti-hHGFR detection antibody in blocking reagent to assay plate (final conc. 1 μg/ml), incubate assay plate for 60 min at room temperature on an MTP shaker. • Remove anti-hHGFR detection antibody solution from assay plate. • Add 250 μl blocking reagent per well to assay plate, incubate assay plate for 20 h, at 4° C. • Remove blocking reagent from assay plate. • Add 50 μl of HT29 lysate, incubate assay plate for 180 min, at 4° C. on an MTP shaker. • Wash assay plate with 2×200 μl TBS buffer per well. • Add 40 μl of 0.2% DMSO in kinase buffer to assay plate. • Add 40 μl sample solution (dissolved in kinase buffer—final conc. 22.5 μM). • Dissolve samples (1:3 ratio) in MTP. • Add 10 μl ATP dissolved in kinase buffer (200 μM) to samples (final conc. 40 μM ATP). Positive control: add 40 μl kinase buffer plus 10 μl 200 μM ATP. Negative control: add 40 μl kinase buffer plus 10 μl kinase buffer without ATP. […]

Src (p60^c-src) = target: T2, Src (p60^c-src) (Homo sapiens, UniProt P12931); assay: SRC-Inhibitor-Assay (time-resolved fluorescence kinase assay); assay type: biochemical; conditions: ATP 5 μM; enzyme pre-incubated with inhibitor 15 min at 15° C.
T2 construct: purchased Upstate (UBI)
T2 sequence (P12931 whole entry): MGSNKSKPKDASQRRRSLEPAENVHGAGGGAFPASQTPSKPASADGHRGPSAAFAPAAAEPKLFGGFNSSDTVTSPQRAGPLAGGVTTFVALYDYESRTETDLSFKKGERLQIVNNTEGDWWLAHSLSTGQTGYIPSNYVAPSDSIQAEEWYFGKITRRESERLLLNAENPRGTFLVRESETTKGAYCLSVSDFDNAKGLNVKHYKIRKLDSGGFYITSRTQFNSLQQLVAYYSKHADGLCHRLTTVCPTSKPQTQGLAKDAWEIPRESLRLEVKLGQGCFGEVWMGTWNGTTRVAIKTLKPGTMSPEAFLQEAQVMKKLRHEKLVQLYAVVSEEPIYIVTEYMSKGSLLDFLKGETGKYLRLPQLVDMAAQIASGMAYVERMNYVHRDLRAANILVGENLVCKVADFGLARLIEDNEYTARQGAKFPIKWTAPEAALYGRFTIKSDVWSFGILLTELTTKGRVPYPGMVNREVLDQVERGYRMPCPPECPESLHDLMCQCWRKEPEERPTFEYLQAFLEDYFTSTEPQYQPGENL
Experimental: SRC-Inhibitor-Assay Parameters:
Assay buffer: 4 mM MgCl2 • 2 mM TCEP • 50 mM HEPES • 0.1% Tween 20 • pH 7.3
Inhibitor: max. 25 μM • min. 0.42 nM Material:
Eu-labelled phosphotyrosine antibody:—for Lck Cisbio Mab PT66-K, • for Src EG&G Wallac PT66 Eu-W1024 (all commercially available).
Peptides: Ro: NH2-A-E-E-E-I-Y-G-E-F-E-A-K-K-K-K-CONH2 (SEQ ID NO: 1), and Ja133-Ro: Ja133-G-Aminocaprylic acid-A-E-E-E-I-Y-G-E-F-E-A-K-K-K-K-CONH2 (SEQ ID NO: 2) wherein Ja133 is LightCycler-Red 640-N-hydroxy succinimide ester; whereby both peptides were synthesized by an optimized solid phase peptide synthesis protocol (Merrifield, Fed. Proc. Fed. Amer. Soc. Exp. Biol. 21 (1962) 412) on a Zinsser SMP350 peptide synthesizer. Shortly, the peptide was assembled on 160 mg (22.8 μmol scale) of a Rink-Linker modified polystyrene solid phase by repeatedly conjugating an twenty fold excess of aminoacids each protected by temporary piperidine labile Fmoc- and permanent acid labile tert-Bu-, BOC- and Otert-Bu-groups depending on the side chain function. The substrate sequence AEEEIYGEFEAKKKK (SEQ ID NO: 1) was N-terminal additionally mounted with the spacer amino acids Aminocaprylic acid and Glycin. After cleavage of the N-terminal temporary protecting group the still attached and protected peptide was labeled with a 1.5 fold amount of LightCycler-Red 640-N-hydroxy succinimide ester (purchased by Roche Diagnostics GmbH) and triethylamine. After 3 hrs. the resin was washed with Dimethylformamide and Isopropanol until the eluates of the blue resin got colourless. […] The substrate was finally isolated by a preparative reverse phase HPLC purification. The purification yielded 12.2 mg RP-HPLC single peak pure blue material (lyophilisate). The identity was proven by MALDI mass spectroscopy [2720.0].
Enzymes: Upstate Lck (p56^lck, active), Upstate Src (p60^c-src, partially purified) were purchased from UBI.
Time-resolved Fluorescence Assay: Reader: Perkin Elmer, Wallac Viktor 1420-040 multilabel counter; Liquid handling system: Beckman Coulter, Biomek 2000.
ATP, Tween 20, HEPES were purchased from Roche Molecular Biochemicals, MgCl2 and MnCl2 were purchased from Merck Eurolab, TCEP was purchased from Pierce, 384 Well low volume fluorescence plates was purchased from Falcon.
At first the enzyme is pre-incubated for 15 min. at 15° C. in aqueous solution with corresponding amounts of inhibitors according to this invention. Then the phosphorylation reaction is started by adding a reaction mixture, containing ATP, Peptide and PT66, and subsequent shaking. The proceeding of this reaction is immediately monitored using time resolved fluorescence spectroscopy in a suitable well plate reader.
The IC50-values can be obtained from the reaction rates by using a non-linear curve fit (Excelfit).

| Compound | IC50 (c-met) [nM] | IC50 (Src (p60^c-src)) [nM] |
| --- | --- | --- |
| CCN(CC)CCOc1ccc(Nc2nccc(-c3[nH]c(-c4c(Cl)cccc4Cl)nc3-c3cccc(Br)c3)n2)cc1 [Example H1.1, 2-(2,6-dichlorophenyl)-4-(3-bromophenyl)-5-(2-[4-(2-diethylamino-ethoxy)phenylamino]pyrimidin-4-yl)-N—H-imidazole] | 5 | 6.7 |
| CN(C)c1ccc(Nc2nccc(-c3[nH]c(-c4c(Cl)cccc4Cl)nc3-c3cccc(Cl)c3)n2)cc1 [Example H2.1.3, 2-(2,6-dichlorophenyl)-4-(3-chlorophenyl)-5-(2-[4-dimethylaminophenyl-amino]pyrimidin-4-yl)-N—H-imidazole] | 167 | 31 |
| Clc1cccc(-c2nc(-c3c(Cl)cccc3Cl)[nH]c2-c2ccnc(Nc3ccc(N4CCOCC4)cc3)n2)c1 [Example H2.1.4, 2-(2,6-dichlorophenyl)-4-(3-chlorophenyl)-5-(2-[4-morpholinophenyl-amino]pyrimidin-4-yl)-N—H-imidazole] | 84 | 23.3 |
| CCN(CC)CCOc1ccc(Nc2nccc(-c3nc(-c4c(Cl)cc(CO)cc4Cl)[nH]c3-c3cccc(Cl)c3)n2)cc1 [Example H2.2.1, 2-(2,6-dichloro-4-hydroxymethylphenyl)-4-(3-chlorophenyl)-5-(2-[4-(2-diethylaminoethoxy)-phenylamino]pyrimidin-4-yl)-N—H-imidazole] | 4 | 0.5 |
| CCN(CC)CCOc1ccc(Nc2nccc(-c3[nH]c(-c4c(Cl)cc(OCCO)cc4Cl)nc3-c3cccc(Cl)c3)n2)cc1 [Example H2.3.1, 2-(2,6-dichloro-4-[2-hydroxyethoxy]phenyl)-4-(3-chlorophenyl)-5-(2-[4-(2-diethylaminoethoxy)-phenylamino]pyrimidin-4-yl)-N—H-imidazole] | – | 1.6 |
| C[S+]([O-])c1ccc(Nc2nccc(-c3[nH]c(-c4c(Cl)cc(OCCO)cc4Cl)nc3-c3cccc(Cl)c3)n2)cc1 (stereo not drawn) [Example H2.3.2, 2-(2,6-dichloro-4-[2-hydroxyethoxy]phenyl)-4-(3-chlorophenyl)-5-(2-[4-methylsufinyl-phenylamino]pyrimidin-4-yl)-N—H-imidazole] | – | 331 |
| O=S(=O)(NCCO)c1ccc(Nc2nccc(-c3[nH]c(-c4c(Cl)cc(OCCO)cc4Cl)nc3-c3cccc(Cl)c3)n2)cc1 [Example H2.3.3, 2-(2,6-dichloro-4-[2-hydroxyethoxy]phenyl)-4-(3-chlorophenyl)-5-(2-[4-(N-(2-hydroxyethyl)-ulfamoyl)phenylamino]pyrimidin-4-yl)-N—H-imidazole] | – | 6.7 |
| CCN(CC)CCOc1ccc(Nc2nccc(-c3[nH]c(-c4c(Cl)cccc4Cl)nc3-c3ccc(Cl)cc3)n2)cc1 [Example H3.1.1, 2-(2,6-dichlorophenyl)-4-(4-chlorophenyl)-5-(2-[4-(2-diethylaminoethoxy)-phenylamino]pyrimidin-4-yl)-N—H-imidazole] | 609 | 24.4 |
| C#Cc1cccc(-c2nc(-c3c(Cl)cccc3Cl)[nH]c2-c2ccnc(Nc3ccc(OCCO)cc3)n2)c1 [Example H4.1.2, 2-(2,6-dichlorophenyl)-4-(3-ethynylphenyl)-5-(2-[4-(2-hydroxyethoxy)-phenylamino]pyrimidin-4-yl)-N—H-imidazole] | 90 | 33.3 |
